# Reference: patent US6903052B2, “Nematicidal compositions and methods” (Divergence, Inc., priority 2002, dated 2005)
# Experiments:
# [1] = tested on: free-living, animal parasitic, and plant parasitic nematodes; experiment: Nematicidal activity across the spectrum of nematodes, summary statement (Example 8); format: cell-based; settings: concentrations of 0.1% and 0.01%
# Description: Briefly, the indicated fatty acid emulsions were added and rapidly mixed by swirling. Nematode viability was scored by visual observation and motility assays 24 hours following addition of emulsions (48 hours for plant parasitic nematodes Meloidogyne and Heterodera species). The fatty acid emulsions tested were methyl esters of nonanoic (pelargonic) acid, ricinelaidic acid, ricinoleic acid, vernolic acid, linoleic acid, and oleic acid. […] Results shown are mean % values obtained from multiple independent experiments
# The Caenorhabiditis elegans were mixed stage populations. Similar effects seen on several other free-living nematode species. The Parastrongyloides trichosuri (parasite of Australian bushtail possum) were dauer-like infective 3rd stage larva. Similar effects are also seen against free-living stages. The Meloidogyne incognita and Meloidogyne javanica (root knot nematode) were 2nd stage juveniles (dauer-like infective stage). The Heterodera glycines (soybean cyst nematode) were 2nd stage juveniles (dauer-like infective stage). Finally, the Pratylenchus scribneri (corn lesion nematode) were mixed stage populations.
# [2] = tested on: C. elegans; experiment: Nematicidal activity of emulsions made with cyclodextrins (replacing isopropanol) against C. elegans; format: cell-based, Caenorhabditis elegans; settings: igepal CO 630 / 2-Hydroxypropyl-β-Cyclodextrin emulsion
# Description: In an effort to increase the bioavailability of fatty acid methyl esters in emulsions, isopropanol was replaced with one of two cyclodextrins (Methyl-β-Cyclodextrin or 2-Hydroxypropyl-β-Cyclodextrin).
# [3] = tested on: H. glycines; experiment: Nematicidal activity of fatty acid methyl ester emulsions, spectrum (Example 8); format: cell-based, Heterodera glycines; settings: H. glycines 2nd stage juveniles, scored at 48 hours
structure (smiles),measurement,setting,value
"CCCCCCC(O)C/C=C\CCCCCCCC(=O)OC (stereo not drawn) [Ricinoleic Acid (C18-methyl ester), 12-hydroxy-cis-9-octadecenoic acid methyl ester]",Nematicidal activity (in words),[1],strongly nematicidal
same,% Worm Death (24 hr),[2]; 0.001% solution,˜50%
same,% Worm Death (24 hr),[2]; 0.01% solution,>80%
same,% Worm Death (24 hr),[2]; 0.1% solution,>95%
same,% Worm Death (24 hr),[3]; 0.001% solution,˜40%
same,% Worm Death (24 hr),[3]; 0.01% solution,˜60%
same,% Worm Death (24 hr),[3]; 0.1% solution,˜60%
